US6924092B1, “Screening method involving MGDG synthase” (Commissariat a L'Energie Atomique, priority 1999, dated 2005)

Experiments:
[1] = biological target: T1, rMGD A (overexpressed spinach MGDG synthase) (Spinacia oleracea, UniProt Q9SM44); assay: Galactosylation activity of partially purified recombinant MGDG synthase (rMGD A), measured with micelles and UDP-[14C]gal; assay type: biochemical; conditions: for Inhibition of rMGD A activity (in words): overexpressed rMGD A; for activity at 150 µM: 150 μM NEM 10 min, % of control
T1 construct: Two mature forms of MGDG synthase are overexpressed in E. coli; additional initiation methionine (N); made in house; host or cells: E. coli BL21(DE3), plasmid pET-Y 3a; solubilised with CHAPS and partially purified on hydroxyapatite
T1 sequence (Q9SM44 99-522): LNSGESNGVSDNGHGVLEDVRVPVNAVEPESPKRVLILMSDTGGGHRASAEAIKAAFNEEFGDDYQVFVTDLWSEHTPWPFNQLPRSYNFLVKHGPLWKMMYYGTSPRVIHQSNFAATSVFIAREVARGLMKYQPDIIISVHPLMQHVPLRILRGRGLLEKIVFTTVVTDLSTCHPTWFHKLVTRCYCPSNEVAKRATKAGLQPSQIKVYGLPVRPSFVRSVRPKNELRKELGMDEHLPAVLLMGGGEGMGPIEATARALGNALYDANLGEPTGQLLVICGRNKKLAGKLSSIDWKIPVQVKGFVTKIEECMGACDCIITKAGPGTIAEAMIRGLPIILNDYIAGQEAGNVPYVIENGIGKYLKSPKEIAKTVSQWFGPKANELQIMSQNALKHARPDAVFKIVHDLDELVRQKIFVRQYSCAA
Protocol: The activity of the MGDG synthase is measured on various types of sample, depending on the model chosen: plastidial membrane, membrane fractions of E. coli overexpressing a recombinant MGDG synthase (rMGD A, 0.7 μg protein/assay, enzyme extracted beforehand from a plant (see Example 1)).
1.3 mM of phosphatidylglycerol (PG) and 160 μM of diacylglycerol (DAG) are dissolved in chloroform. After evaporating the solvent under argon, 200 μl of incubation medium containing 50 mM of MOPS-NaOH, pH 7.8, 4.5 mM OF CHAPS, 1 mM of DTT, 250 mM of KH2PO4/K2HPO4 and 250 mM of KCl are added and the medium is mixed vigorously so as to resuspend the lipids. 100 μl of fractions containing the MGDG synthase, in the incubation medium, are introduced then the medium is again mixed vigorously and then maintained at 20° C. for 1 h.
The reaction in the incubation mixture is then initiated by adding 1 mM of UDP-[^14C]gal (37 Bq/μmol). After 10 min to 1 h, the reaction is stopped by adding a chloroform/methanol mixture (1:2, v/v), the lipids are extracted in accordance with the method of Bligh et al (Can. J. Biochem. Physiol, 1959, 37, 911-917) and the radioactivity of the labeled galactolipids is determined by liquid scintillation counting as described in Covès et al. (FEBS lett., 1986, 208, 401-406). The activity is expressed in μmol of galactose incorporated/h/mg of protein.
The fractions of partially purified rMGD A are desalified by chromatography on a Biogel P6-DG (Bio-Rad) column (Pharmacia, C10/40 column, 30 ml of gel) equilibrated in DTT. Aliquots (200 μl) of the fractions are incubated for 40 minutes at 25° C. with gentle stirring, in the presence or absence of DTT. The galactosylation activity is then measured as specified above (see Example 3).
In order to obtain the results summarized in Table II, the rMGD A is desalified by chromatography on a Biogel P6-DG (Bio-Rad) column (Pharmacia, C10/40, column, 30 ml of gel) equilibrated in DTT. Aliquots (200 μl) of the fractions are incubated for 30 minutes at 25° C. with gentle stirring, followed by a 10 min incubation in the presence or absence of 150 μM NEM and then a 10 min incubation in the presence or absence of DTT. The galactosilyation activity is then measured as specified above (see Example 3).

[2] = biological target: T2, MGDG synthase partially purified from spinach leaf chloroplasts (Spinacia oleracea, UniProt Q9SM44); conditions: chloroplast envelope enzyme, Maréchal et al., J. Biol. Chem., 1995; cited from earlier work
T2 construct: the MGDG synthase partially purified from spinach leaf chloroplasts; host or cells: spinach leaf chloroplasts (envelope membranes)
T2 sequence (Q9SM44 99-522): T1 sequence (Q9SM44 99-522)

| Structure (SMILES) | Inhibition of rMGD A activity (in words) [1] | activity at 150 µM ([1]; pre-incubation 30 min with DTT, no further DTT incubation, reaction + PG + DAG + UDP-gal) [%] | activity at 150 µM ([1]; pre-incubation 30 min with PG + DAG, then 10 mM DTT 10 min, reaction + UDP-gal) [%] | activity at 150 µM ([1]; pre-incubation 30 min with PG, then 10 mM DTT 10 min, reaction + DAG + UDP-gal) [%] | activity at 150 µM ([1]; pre-incubation 30 min with UDP-gal, then 10 mM DTT 10 min, reaction + PG + DAG) [%] | activity at 150 µM ([1]; pre-incubation 30 min without addition, then 10 mM DTT 10 min, reaction + PG + DAG + UDP-gal) [%] | Inhibition of the enzyme (in words) [2] | Effect of DTT on rMGD A activity after desalification (in words) ([1]; DTT removed on Biogel P6-DG column, DTT added back) | Activity (%) ([1]; desalified hydroxyapatite fraction + 1 mM DTT, 40 min at 25° C., percentage of the control (not desalified) activity) | Activity (%) ([1]; desalified hydroxyapatite fraction + 10 mM DTT, 40 min at 25° C., percentage of the control (not desalified) activity) | activity at 10000 µM ([1]; desalified rMGD A, pre-incubation 30 min without addition, no NEM, then 10 mM DTT 10 min, % of control (50 min in 10 mM DTT)) [%] | Protection of enzyme activity against oxidation (in words) [2] | Activity (%) ([1]; with orthophenanthroline, no other additions, initial activity (time 0) = 100) | Activity (%) ([1]; with orthophenanthroline, other addition PG, initial activity (time 0) = 100) | Activity (%) ([1]; with orthophenanthroline, other addition UDP-gal, initial activity (time 0) = 100) | Activity (%) ([1]; with orthophenanthroline, other additions PG + DAG, initial activity (time 0) = 100) |
| --- | --- | --- | --- | --- | --- | --- | --- | --- | --- | --- | --- | --- | --- | --- | --- | --- |
| CCN1C(=O)C=CC1=O [NEM, N-ethylmaleimide] | very sensitive | 108 | 60 | 56 | 32 | 35 | powerful inhibitors | – | – | – | – | – | – | – | – | – |
| O[C@H](CS)[C@H](O)CS (racemic) [DTT, dithiothreitol] | – | – | – | – | – | – | – | maintains its activity | 75 | 65 | 101 | can protect the activity of the enzyme against oxidation | – | – | – | – |
| c1cnc2c(c1)ccc1cccnc12 [orthophenanthroline] | inhibited | – | – | – | – | – | powerful inhibitors | – | – | – | – | – | 43 | 27 | 17 | 92 |
